The record followed here is US20010011143A1, “Process for preparing phenoxyphenylsulfonyl halides” (priority 1998, published 2001).

SMILES strings stand for the structures.

With `O=S(=O)(Oc1ccc(F)cc1)c1ccc(Oc2ccc(F)cc2)cc1` [Example 1, 4-(4-Fluorophenoxy)benzenesulfonic Acid 4-Fluorophenyl Ester], the melting point (as a rule, the temperature of the solid-liquid transition) was 78 to 83 °C.
